Patent US11028090B2 (Dong Wha Pharm. Co., Ltd., priority 2017, dated 2021)
Read-outs that look alike come from different tables or passages of the source.

How the values were obtained:
[1] = test system: acute myelogenous leukemia cells (MV-4-11 cells); assay: Cytotoxicity to acute myelogenous leukemia cells (MV-4-11 cells), CCK-8; conditions: Homo sapiens, MV4-11, 72 h
[2] = target: BRD4 (BD1+BD2) bromodomain (Homo sapiens (Human), UniProt O60885); assay: BRD4 binding inhibition (AlphaScreen, GST-BRD4 vs tetraacetylated histone H4 peptide)
How it was run: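 AlphaScreen read after 30 min dark incubation at room temperature with glutathione acceptor/streptavidin donor beads (10 μg/ml each). The beads were added to compound plus 100 nM biotin-H4 (K5,8,12,16-acetyl) peptide and 100 nM GST-BRD4 BD1+BD2 in pH 7.4 HEPES/Tween/BSA/DTT buffer.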

[3] = read-out: IC50, cytotoxicity against acute myelogenous leukemia cells
[4] = read-out: MV-4-11 Cytotoxicity IC50
[5] = GST-BRD4 (BD1+BD2) vs biotinylated acetyl-histone H4 peptide, AlphaScreen, read-out: BRD4 IC50
[6] = GST-BRD4 (BD1+BD2) / biotinylated acetyl-histone H4 (Lys5,8,12,16) peptide, read-out: IC50, BRD4 binding inhibition

Row | SMILES | IC50 [1, 3] | IC50 [1, 4] | IC50 [2, 5] | IC50 ([2]; IC50, BRD4 binding inhibition, GST-BRD4 (BD1+BD2) / biotinylated acetyl-histone H4 (Lys5,8,12,16) peptide) | IC50 [2, 6]
1 | COc1ccc2c(c1)nc(NCCCCNC(=O)C(F)(F)C(F)(F)C(F)(F)F)c1nnc(C)n12 [Example 292, 2,2,3,3,4,4,4-heptafluoro-N-[4-(7-methoxy-1-methyl-[1,2,4]triazolo[4,3-a]quinoxaline-4-ylamino)-butyl]-butyramide] | ≤ 200 nM | 158 nM | 24 nM | ≤ 50 nM | –
2 | COc1ccc2c(c1)nc(NCCCCNC(=O)C(C)(C)C(F)(F)F)c1nnc(C)n12 [Example 293, 3,3,3-trifluoro-N-[4-(7-methoxy-1-methyl-[1,2,4]triazolo[4,3-a]quinoxaline-4-ylamino)-butyl]-2,2-dimethyl-propaneamide] | – | 673 nM | 40 nM | – | ≤ 50 nM
3 | CCC(F)(F)C(=O)NCCCCNc1nc2cc(OC)ccc2n2c(C)nnc12 [Example 294, 2,2-difluoro-N-[4-(7-methoxy-1-methyl-[1,2,4]triazolo[4,3-a]quinoxaline-4-ylamino)-butyl]-butyramide] | – | 203 nM | 15 nM | – | ≤ 50 nM
4 | COc1ccc2c(c1)nc(NCCCCNC(=O)[C@H](O)C(C)C)c1nnc(C)n12 [Example 298, 2-(R)-hydroxy-N-[4-(7-methoxy-1-methyl-[1,2,4]triazolo[4,3-a]quinoxaline-4-ylamino)-butyl]-3-methyl-butyramide] | – | 270 nM | 4 nM | – | ≤ 10 nM
5 | COc1ccc2c(c1)nc(NCCCCNC(=O)[C@@H](O)C(C)C)c1nnc(C)n12 [Example 299, 2-(S)-hydroxy-N-[4-(7-methoxy-1-methyl-[1,2,4]triazolo[4,3-a]quinoxaline-4-ylamino)-butyl]-3-methyl-butyramide] | – | 375 nM | 7 nM | – | ≤ 10 nM
6 | COc1ccc2c(c1)nc(NCCCCNC(=O)[C@H](OC)C(C)C)c1nnc(C)n12 [Example 300, 2-(R)-methoxy-N-[4-(7-methoxy-1-methyl-[1,2,4]triazolo[4,3-a]quinoxaline-4-ylamino)-butyl]-3-methyl-butyramide] | – | 310 nM | 15 nM | – | ≤ 50 nM
7 | COc1ccc2c(c1)nc(NCCCCNC(=O)[C@@H](Br)C(C)C)c1nnc(C)n12 [Example 302, 2-(S)-bromo-N-[4-(7-methoxy-1-methyl-[1,2,4]triazolo[4,3-a]quinoxaline-4-ylamino)-butyl]-3-methyl-butyramide] | ≤ 200 nM | 66 nM | 8 nM | – | ≤ 10 nM
8 | COc1ccc2c(c1)nc(NCCCCNC(=O)Cc1cccs1)c1nnc(C)n12 [Example 307, N-[4-(7-methoxy-1-methyl-[1,2,4]triazolo[4,3-a]quinoxaline-4-ylamino)-butyl]-2-thiophene-2-yl-acetamide] | ≤ 200 nM | 10 nM | 22 nM | – | ≤ 50 nM
9 | COc1ccc2c(c1)nc(NCCCCNC(=O)Cc1ccco1)c1nnc(C)n12 [Example 308, 2-furan-2-yl-N-[4-(7-methoxy-1-methyl-[1,2,4]triazolo[4,3-a]quinoxaline-4-ylamino)-butyl]-acetamide] | ≤ 200 nM | 20 nM | 58 nM | – | –
10 | COc1ccc2c(c1)nc(NCCCCNC(=O)CCC1CCCC1)c1nnc(C)n12 [Example 309, 3-cyclopentyl-N-[4-(7-methoxy-1-methyl-[1,2,4]triazolo[4,3-a]quinoxaline-4-ylamino)-butyl]-propionamide] | ≤ 200 nM | 110 nM | – | – | ≤ 10 nM
11 | COc1ccc2c(c1)nc(NCCCCNC(=O)C(NC(=O)OC(C)(C)C)C(C)C)c1nnc(C)n12 (stereo not drawn) [Example 310, {1-[4-(7-methoxy-1-methyl-[1,2,4]triazolo[4,3-a]quinoxaline-4-ylamino)-butylcarbamoyl]-2-methyl-propyl}-carbamic acid-tert-butylester] | ≤ 200 nM | 126 nM | 42 nM | – | ≤ 50 nM
12 | COc1ccc2c(c1)nc(NCCCCNC(=O)C(N)C(C)C)c1nnc(C)n12 (stereo not drawn) [Example 311, 2-amino-N-[4-(7-methoxy-1-methyl-[1,2,4]triazolo[4,3-a]quinoxaline-4-ylamino)-butyl]-3-methyl-butyramide] | – | 208 nM | 43 nM | – | ≤ 50 nM
13 | COc1ccc2c(c1)nc(NCCCCNC(=O)[C@@H](C(C)C)N(C)C)c1nnc(C)n12 [Example 312, 2-(R)-dimethylamino-N-[4-(7-methoxy-1-methyl-[1,2,4]triazolo[4,3-a]quinoxaline-4-ylamino)-butyl]-3-methyl-butyramide] | – | 510 nM | 18 nM | – | ≤ 50 nM
14 | COc1ccc2c(c1)nc(NCCCCNC(=O)[C@H](C(C)C)N(C)C)c1nnc(C)n12 [Example 313, 2-(S)-dimethylamino-N-[4-(7-methoxy-1-methyl-[1,2,4]triazolo[4,3-a]quinoxaline-4-ylamino)-butyl]-3-methyl-butyramide] | – | 570 nM | 33 nM | – | ≤ 50 nM
15 | COc1ccc2c(c1)nc(NCCCCNC(=O)[C@H](C(C)C)N1CCC(O)C1)c1nnc(C)n12 (stereo partly drawn) [Example 315, 2-(S)-(3-hydroxy-pyrrolidine-1-yl)-N-[4-(7-methoxy-1-methyl-[1,2,4]triazolo[4,3-a]quinoxaline-4-ylamino)-butyl]-3-methyl-butyramide] | – | 550 nM | 36 nM | – | ≤ 50 nM
16 | COc1ccc2c(c1)nc(NCCCCNC(=O)[C@H](C(C)C)N1CCC(O)CC1)c1nnc(C)n12 [Example 316, 2-(S)-(4-hydroxy-piperidine-1-yl)-N-[4-(7-methoxy-1-methyl-[1,2,4]triazolo[4,3-a]quinoxaline-4-ylamino)-butyl]-3-methyl-butyramide] | – | 730 nM | 41 nM | – | ≤ 50 nM
17 | COc1ccc2c(c1)nc(NCCCCNC(=O)[C@@H](NC(=O)OCC(C)C)C(C)C)c1nnc(C)n12 [Example 318, (S)-{1-[4-(7-methoxy-1-methyl-[1,2,4]triazolo[4,3-a]quinoxaline-4-ylamino)-butylcarbamoyl]-2-methyl-propyl}-carbamic acid isobutylester] | ≤ 200 nM | 32 nM | 10 nM | – | ≤ 10 nM
18 | CCCOC(=O)N[C@H](C(=O)NCCCCNc1nc2cc(OC)ccc2n2c(C)nnc12)C(C)C [Example 319, (S)-{1-[4-(7-methoxy-1-methyl-[1,2,4]triazolo[4,3-a]quinoxaline-4-ylamino)-butylcarbamoyl]-2-methyl-propyl}-carbamic acid propylester] | ≤ 200 nM | 114 nM | 11 nM | – | ≤ 50 nM
19 | COc1ccc2c(c1)nc(NCCCCNC(=O)[C@@H](NC(=O)OC(C)C)C(C)C)c1nnc(C)n12 [Example 320, (S)-{1-[4-(7-methoxy-1-methyl-[1,2,4]triazolo[4,3-a]quinoxaline-4-ylamino)-butylcarbamoyl]-2-methyl-propyl}-carbamic acid isopropylester] | – | 670 nM | 4 nM | – | ≤ 10 nM
20 | COc1ccc2c(c1)nc(NCCCCNC(=O)[C@@H](NC(=O)[C@@H](F)C(C)C)C(C)C)c1nnc(C)n12 [Example 321, (S)-2-(S)-fluoro-N-{1-[4-(7-methoxy-1-methyl-[1,2,4]triazolo[4,3-a]quinoxaline-4-ylamino)-butylcarbamoyl]-2-methyl-propyl}-3-methyl-butyramide] | – | 553 nM | 12 nM | – | ≤ 50 nM
